Results published in patent US20230330093A1, “APPLICATION OF NITROGEN-CONTAINING SATURATED HETEROCYCLIC COMPOUND” (SHANGHAI PHARMACEUTICALS HOLDING CO., LTD., priority 2020, published 2023).
Values joined by “and” are separate entries in the source; they are usually repeats but may differ in a detail not shown here. Equal values may be shown once.

Assays:
[1] = system: rhesus monkeys with spontaneous chronic kidney disease (CKD); assay: Effect on UACR (proteinuria), 8-week oral administration; format: in vivo, Macaca mulatta (Rhesus Macaque); details: for MALB / UACR: per animal + Mean ± SD
Experimental: CKD-EPI rating […]-G3b, glomerular filtration rate eGFR: 30 59 ml/min/1.73 m^2; or moderate to severe increase in proteinuria (A2-A3): urine albumin/creatinine ratio (UACR)>15 mg/g-350 mg/g (4-6 hour urine collection), vs. age-matched control group 3±2 mg/g. In the trial, animals were brought in three stages. […] ELISA kit was used for NT-proBNP test. [table]

[2] = system: rhesus monkeys with spontaneous chronic kidney disease; assay: Effect on glomerular filtration rate eGFRcreat-cys, 8-week administration; format: in vivo, Macaca mulatta (Rhesus Macaque); details: for eGFRcreat-cys: 1 mg/kg qd (n = 5)
Experimental: CKD-EPI rating […]-G3b, glomerular filtration rate eGFR: 30 59 ml/min/1.73 m^2; or moderate to severe increase in proteinuria (A2-A3): urine albumin/creatinine ratio (UACR)>15 mg/g-350 mg/g (4-6 hour urine collection), vs. age-matched control group 3±2 mg/g. In the trial, animals were brought in three stages. […] Glomerular filtration rate […]: creatinine (Cr-P), urea nitrogen (BUN) and cystatin (CysC) were detected, and the eGFR value was obtained by calculation. It was performed once before the administration and once every two weeks after the administration. […] ELISA kit was used for NT-proBNP test. [table] Selected […] in each group: 30 59 ml/min/1.73 m^2. The changes in the glomerular filtration rate of W8 and baseline were analyzed.

[3] = 5 mg/kg oral once a day, 8 weeks
[4] = 5 mg/kg oral once a day, 8 weeks, mean
[5] = 5 mg/kg oral once a day, Baseline
[6] = 5 mg/kg oral once a day, Baseline, mean

Question: `COC(=O)NCCCn1nc([C@@H](C)N(C(=O)[C@H]2CNCCO2)C2CC2)c2ccc(C)nc21.O=C(O)C[C@H](O)C(=O)O` [malate of compound of Formula I] was tested. Which “UACR Benefit assessment” value ([1]; 5 mg/kg oral once a day, 8 weeks, per animal) did it give?
Answer: Its value is “all showed benefits and One animal showed no benefit and No and Benefit”.

Question: And the MALB [1, 3]?
Answer: Its MALB is 72.4 mg/L and 1.2 mg/L and 3.4 mg/L and 112.3 mg/L and 0.3 mg/L and 21.6 mg/L.

Question: And the UACR [1, 3]?
Answer: Its UACR is 138.4 mg/g and 5.7 mg/g and 9.1 mg/g and 87.7 mg/g and 1.8 mg/g and 35.1 mg/g.

Question: And the MALB [1, 4]?
Answer: Its MALB is 35.2 ± 46.7 mg/L.

Question: And the UACR [1, 4]?
Answer: Its UACR is 46.3 ± 55.4 mg/g.

Question: What about the MALB [1, 5] of the same molecule?
Answer: The MALB was 93.2 mg/L and 4.3 mg/L and 46.5 mg/L and 59.3 mg/L and 2.1 mg/L and 26.0 mg/L.

Question: And the UACR [1, 5]?
Answer: The UACR was 118.5 mg/g and 10.5 mg/g and 25.4 mg/g and 279.3 mg/g and 2.4 mg/g and 125.8 mg/g.

Question: And the MALB [1, 6]?
Answer: The MALB was 38.6 ± 35.0 mg/L.

Question: What about the UACR [1, 6] of the same molecule?
Answer: The UACR was 93.7 ± 105.9 mg/g.

Question: And the “UACR of W8 decreased by, compared with the baseline” value ([1]; 5 mg/kg qd, 3 animals)?
Answer: The value was 60%-70%.

Question: What about the “W8 UACR decreased by on average, compared with the baseline” value ([1]; 5 mg/kg qd, 4/6 animals with moderate-to-severe proteinuria, p<0.05 vs placebo) of the same molecule?
Answer: Its value is 46.87±36.93%.

Question: What about the “effect on UACR and eGFRcreat-cys compared with Valsartan” value ([1]; 2-5 mg/kg qd for 8 weeks) of the same molecule?
Answer: Its value is “equivalent to the Valsartan group”.

Question: What about the “proteinuria (UACR) improvement” value ([1]; 2-5 mg/kg qd for 8 weeks) of the same molecule?
Answer: The value was “can be significantly improved”.

Question: What about the “eGFRcreat-cy, Change value” ([2]; 1 mg/kg oral once a day, 2 weeks vs baseline, per animal + Mean ± SD) of the same molecule?
Answer: The value was 1 ml/min/1.73 m^2 and 2 ml/min/1.73 m^2 and −3 ml/min/1.73 m^2 and −2 ml/min/1.73 m^2 and 4 ml/min/1.73 m^2.

Question: And the “eGFRcreat-cy, Change value” ([2]; 1 mg/kg oral once a day, 2 weeks vs baseline, per animal + Mean ± SD, mean)?
Answer: Its value is 0 ± 3 ml/min/1.73 m^2.

Question: And the “eGFRcreat-cy, Change value” ([2]; 1 mg/kg oral once a day, 4 weeks vs baseline, per animal + Mean ± SD)?
Answer: Its value is 8 ml/min/1.73 m^2 and 10 ml/min/1.73 m^2 and 3 ml/min/1.73 m^2 and 1 ml/min/1.73 m^2 and 5 ml/min/1.73 m^2.

Question: And the “eGFRcreat-cy, Change value” ([2]; 1 mg/kg oral once a day, 4 weeks vs baseline, per animal + Mean ± SD, mean)?
Answer: Its value is 5 ± 4 ml/min/1.73 m^2.

Question: And the “eGFRcreat-cy, Change value” ([2]; 1 mg/kg oral once a day, 6 weeks vs baseline, per animal + Mean ± SD)?
Answer: Its value is 7 ml/min/1.73 m^2 and 3 ml/min/1.73 m^2 (3×) and 6 ml/min/1.73 m^2.

Question: And the “eGFRcreat-cy, Change value” ([2]; 1 mg/kg oral once a day, 6 weeks vs baseline, per animal + Mean ± SD, mean)?
Answer: Its value is 4 ± 2 ml/min/1.73 m^2.

Question: And the “eGFRcreat-cy, Change value” ([2]; 1 mg/kg oral once a day, 8 weeks vs baseline, per animal + Mean ± SD (no statistical change vs placebo))?
Answer: The value was 3±4 ml/min/1.73 m^2 and 7 ml/min/1.73 m^2 and 6 ml/min/1.73 m^2 and 0 ml/min/1.73 m^2 and 2 ml/min/1.73 m^2 and 5 ml/min/1.73 m^2.

Question: And the “eGFRcreat-cy, Change value” ([2]; 1 mg/kg oral once a day, Baseline, per animal + Mean ± SD)?
Answer: The value was 0 ml/min/1.73 m^2.

Question: What about the “eGFRcreat-cy, Change value” ([2]; 1 mg/kg oral once a day, Baseline, per animal + Mean ± SD, mean) of the same molecule?
Answer: The value was 0 ± 0 ml/min/1.73 m^2.

Question: What about the eGFRcreat-cys ([2]; 2 weeks) of the same molecule?
Answer: The eGFRcreat-cys was 53 ml/min/1.73 m^2 and 56 ml/min/1.73 m^2 and 50 ml/min/1.73 m^2 and 48 ml/min/1.73 m^2.

Question: And the eGFRcreat-cys ([2]; 2 weeks, group mean)?
Answer: The eGFRcreat-cys was 52 ± 3 ml/min/1.73 m^2.

Question: And the eGFRcreat-cys ([2]; 4 weeks)?
Answer: Its eGFRcreat-cys is 60 ml/min/1.73 m^2 and 64 ml/min/1.73 m^2 and 55 ml/min/1.73 m^2 and 52 ml/min/1.73 m^2 and 56 ml/min/1.73 m^2.

Question: What about the eGFRcreat-cys ([2]; 4 weeks, group mean) of the same molecule?
Answer: Its eGFRcreat-cys is 57 ± 5 ml/min/1.73 m^2.

Question: What about the eGFRcreat-cys ([2]; 6 weeks) of the same molecule?
Answer: Its eGFRcreat-cys is 58 ml/min/1.73 m^2 and 57 ml/min/1.73 m^2 and 56 ml/min/1.73 m^2 and 53 ml/min/1.73 m^2.

Question: And the eGFRcreat-cys ([2]; 6 weeks, group mean)?
Answer: Its eGFRcreat-cys is 56 ± 2 ml/min/1.73 m^2.

Question: What about the eGFRcreat-cys ([2]; 8 weeks) of the same molecule?
Answer: The eGFRcreat-cys was 58 ml/min/1.73 m^2 and 59 ml/min/1.73 m^2 and 53 ml/min/1.73 m^2 and 48 ml/min/1.73 m^2 and 57 ml/min/1.73 m^2.

Question: And the eGFRcreat-cys ([2]; 8 weeks, group mean)?
Answer: The eGFRcreat-cys was 55 ± 5 ml/min/1.73 m^2.

Question: What about the eGFRcreat-cys ([2]; Baseline, single animals and Mean ± SD) of the same molecule?
Answer: The eGFRcreat-cys was 51 ml/min/1.73 m^2 and 54 ml/min/1.73 m^2 and 53 ml/min/1.73 m^2 and 50 ml/min/1.73 m^2 and 52 ml/min/1.73 m^2.

Question: And the eGFRcreat-cys ([2]; Baseline, single animals and Mean ± SD, group mean)?
Answer: The eGFRcreat-cys was 52 ± 1 ml/min/1.73 m^2.

Question: And the “eGFRcreat-cy, Change value” ([2]; 2 mg/kg oral once a day, 2 weeks vs baseline, per animal + Mean ± SD)?
Answer: The value was 5 ml/min/1.73 m^2 and −3 ml/min/1.73 m^2 (3×) and 0 ml/min/1.73 m^2.
